Test results: ChEMBL document CHEMBL4011618, “Discovery of Potent, Selective Stem Cell Factor Receptor/Platelet Derived Growth Factor Receptor Alpha (c-KIT/PDGFRα) Dual Inhibitor for the Treatment of Imatinib-Resistant Gastrointestinal Stromal Tumors (GISTs)” (J Med Chem, 2017)
Blank lines part the entries; values can stand above or below the compound they belong to. Activity calls are given as the source filed them. The rule behind the calls is not given here.

Key:
[1] = target: T1, Platelet-derived growth factor receptor alpha (Homo sapiens, UniProt P16234); test: Inhibition of PDGFRalpha (unknown origin) using FAM-labeled peptide as substrate preincubated for 10 mins followed by substrate addition in presence of ATP by mobility shift assay
T1 sequence (P16234 whole entry): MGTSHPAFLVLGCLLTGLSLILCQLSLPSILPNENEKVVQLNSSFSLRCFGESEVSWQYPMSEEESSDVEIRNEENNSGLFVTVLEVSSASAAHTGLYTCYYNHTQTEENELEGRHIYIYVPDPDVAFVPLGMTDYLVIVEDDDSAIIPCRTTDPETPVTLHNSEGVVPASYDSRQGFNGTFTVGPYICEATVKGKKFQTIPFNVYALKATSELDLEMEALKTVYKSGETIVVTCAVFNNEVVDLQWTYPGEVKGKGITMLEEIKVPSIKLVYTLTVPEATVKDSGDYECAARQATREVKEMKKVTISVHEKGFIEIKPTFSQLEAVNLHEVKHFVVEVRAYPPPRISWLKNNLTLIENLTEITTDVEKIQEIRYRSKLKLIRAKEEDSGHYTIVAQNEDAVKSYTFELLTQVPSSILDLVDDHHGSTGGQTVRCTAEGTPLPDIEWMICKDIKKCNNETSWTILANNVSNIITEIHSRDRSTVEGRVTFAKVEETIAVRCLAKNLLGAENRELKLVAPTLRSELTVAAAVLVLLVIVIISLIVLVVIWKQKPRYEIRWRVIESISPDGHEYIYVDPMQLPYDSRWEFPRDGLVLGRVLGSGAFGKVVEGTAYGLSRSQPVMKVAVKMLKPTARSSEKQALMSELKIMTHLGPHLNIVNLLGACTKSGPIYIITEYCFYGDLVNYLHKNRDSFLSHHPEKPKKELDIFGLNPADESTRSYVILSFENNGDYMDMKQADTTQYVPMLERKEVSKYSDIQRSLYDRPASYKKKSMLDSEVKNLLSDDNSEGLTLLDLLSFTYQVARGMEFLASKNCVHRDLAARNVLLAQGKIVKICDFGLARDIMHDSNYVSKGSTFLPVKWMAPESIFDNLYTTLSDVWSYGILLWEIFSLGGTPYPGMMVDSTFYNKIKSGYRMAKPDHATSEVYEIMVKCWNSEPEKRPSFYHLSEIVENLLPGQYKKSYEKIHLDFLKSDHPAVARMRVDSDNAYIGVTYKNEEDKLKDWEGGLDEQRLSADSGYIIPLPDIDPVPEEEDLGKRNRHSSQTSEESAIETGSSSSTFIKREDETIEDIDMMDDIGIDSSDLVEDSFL

[2] = target: Fibroblast growth factor receptor 1 (Homo sapiens, UniProt P11362); test: Inhibition of FGFR1 (unknown origin) using FAM-labeled peptide as substrate preincubated for 10 mins followed by substrate addition in presence of ATP by mobility shift assay
Fibroblast growth factor receptor 1, sequence (P11362 whole entry): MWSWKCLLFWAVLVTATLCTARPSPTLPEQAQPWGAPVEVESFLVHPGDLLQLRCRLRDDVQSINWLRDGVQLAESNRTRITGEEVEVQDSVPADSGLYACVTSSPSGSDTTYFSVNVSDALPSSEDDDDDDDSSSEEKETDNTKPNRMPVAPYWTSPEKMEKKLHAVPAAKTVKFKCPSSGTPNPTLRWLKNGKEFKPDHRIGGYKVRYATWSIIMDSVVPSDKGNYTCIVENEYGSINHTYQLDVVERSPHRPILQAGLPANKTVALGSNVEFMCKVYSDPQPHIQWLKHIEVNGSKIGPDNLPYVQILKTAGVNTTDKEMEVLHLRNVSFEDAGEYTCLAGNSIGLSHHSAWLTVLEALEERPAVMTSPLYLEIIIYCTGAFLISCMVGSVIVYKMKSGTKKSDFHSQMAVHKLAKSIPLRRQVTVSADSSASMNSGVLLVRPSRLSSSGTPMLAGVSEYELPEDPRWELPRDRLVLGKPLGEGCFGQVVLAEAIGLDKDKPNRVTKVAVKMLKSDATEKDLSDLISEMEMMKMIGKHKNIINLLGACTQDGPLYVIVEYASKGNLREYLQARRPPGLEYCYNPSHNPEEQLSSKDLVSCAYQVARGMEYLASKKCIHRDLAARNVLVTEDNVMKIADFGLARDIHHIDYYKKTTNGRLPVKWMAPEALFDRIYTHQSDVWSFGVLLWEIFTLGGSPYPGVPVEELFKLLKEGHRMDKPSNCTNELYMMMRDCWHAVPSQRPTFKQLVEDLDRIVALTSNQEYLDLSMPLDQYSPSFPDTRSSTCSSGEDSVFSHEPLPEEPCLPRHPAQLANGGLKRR

[3] = target: Platelet-derived growth factor receptor beta (Homo sapiens, UniProt P09619); test: Inhibition of PDGFRbeta (unknown origin) using FAM-labeled peptide as substrate preincubated for 10 mins followed by substrate addition in presence of ATP by mobility shift assay
Platelet-derived growth factor receptor beta, sequence (P09619 whole entry): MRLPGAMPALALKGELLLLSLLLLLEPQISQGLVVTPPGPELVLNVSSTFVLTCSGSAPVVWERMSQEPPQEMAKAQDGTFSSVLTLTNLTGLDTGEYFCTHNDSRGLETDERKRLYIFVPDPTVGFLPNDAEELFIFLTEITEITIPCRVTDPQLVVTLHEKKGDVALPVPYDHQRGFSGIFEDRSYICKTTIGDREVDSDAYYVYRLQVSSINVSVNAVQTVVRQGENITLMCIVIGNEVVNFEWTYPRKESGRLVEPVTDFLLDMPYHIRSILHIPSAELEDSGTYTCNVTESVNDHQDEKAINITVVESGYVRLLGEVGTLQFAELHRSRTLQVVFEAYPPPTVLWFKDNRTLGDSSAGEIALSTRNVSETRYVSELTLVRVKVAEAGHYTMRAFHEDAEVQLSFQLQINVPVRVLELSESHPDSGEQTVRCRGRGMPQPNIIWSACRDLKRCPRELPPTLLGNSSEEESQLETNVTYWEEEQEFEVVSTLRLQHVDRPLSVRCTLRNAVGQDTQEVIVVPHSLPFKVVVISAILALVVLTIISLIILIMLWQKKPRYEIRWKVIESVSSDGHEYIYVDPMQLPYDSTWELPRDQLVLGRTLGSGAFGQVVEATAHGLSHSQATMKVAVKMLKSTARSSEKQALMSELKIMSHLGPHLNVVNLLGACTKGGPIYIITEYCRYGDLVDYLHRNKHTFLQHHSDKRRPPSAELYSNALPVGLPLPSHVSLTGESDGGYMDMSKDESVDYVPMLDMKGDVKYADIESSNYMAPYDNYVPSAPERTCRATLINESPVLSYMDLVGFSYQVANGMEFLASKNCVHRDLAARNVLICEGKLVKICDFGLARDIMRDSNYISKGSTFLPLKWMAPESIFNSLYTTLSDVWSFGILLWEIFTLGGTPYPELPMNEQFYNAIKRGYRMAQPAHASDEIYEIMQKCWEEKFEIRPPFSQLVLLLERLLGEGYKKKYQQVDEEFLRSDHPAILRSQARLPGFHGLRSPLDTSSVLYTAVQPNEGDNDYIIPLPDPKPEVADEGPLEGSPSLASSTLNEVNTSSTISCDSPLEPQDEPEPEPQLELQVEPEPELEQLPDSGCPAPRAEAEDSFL

[4] = target: Receptor-type tyrosine-protein kinase FLT3 (Homo sapiens, UniProt P36888); test: Inhibition of FLT3 (unknown origin) using FAM-labeled peptide as substrate preincubated for 10 mins followed by substrate addition in presence of ATP by mobility shift assay
[5] = target: Vascular endothelial growth factor receptor 1 (Homo sapiens, UniProt P17948); test: Inhibition of VEGFR1 (unknown origin) using FAM-labeled peptide as substrate preincubated for 10 mins followed by substrate addition in presence of ATP by mobility shift assay
[6] = target: Vascular endothelial growth factor receptor 3 (Homo sapiens, UniProt P35916); test: Inhibition of VEGFR3 (unknown origin) using FAM-labeled peptide as substrate preincubated for 10 mins followed by substrate addition in presence of ATP by mobility shift assay
[7] = target: Vascular endothelial growth factor receptor 2 (Homo sapiens, UniProt P35968)
Description: Inhibition of VEGFR2 (unknown origin) using FAM-labeled peptide as substrate preincubated for 10 mins followed by substrate addition in presence of ATP by mobility shift assay

[8] = target: T2, Mast/stem cell growth factor receptor Kit (Homo sapiens, UniProt P10721)
T2 sequence (P10721 whole entry): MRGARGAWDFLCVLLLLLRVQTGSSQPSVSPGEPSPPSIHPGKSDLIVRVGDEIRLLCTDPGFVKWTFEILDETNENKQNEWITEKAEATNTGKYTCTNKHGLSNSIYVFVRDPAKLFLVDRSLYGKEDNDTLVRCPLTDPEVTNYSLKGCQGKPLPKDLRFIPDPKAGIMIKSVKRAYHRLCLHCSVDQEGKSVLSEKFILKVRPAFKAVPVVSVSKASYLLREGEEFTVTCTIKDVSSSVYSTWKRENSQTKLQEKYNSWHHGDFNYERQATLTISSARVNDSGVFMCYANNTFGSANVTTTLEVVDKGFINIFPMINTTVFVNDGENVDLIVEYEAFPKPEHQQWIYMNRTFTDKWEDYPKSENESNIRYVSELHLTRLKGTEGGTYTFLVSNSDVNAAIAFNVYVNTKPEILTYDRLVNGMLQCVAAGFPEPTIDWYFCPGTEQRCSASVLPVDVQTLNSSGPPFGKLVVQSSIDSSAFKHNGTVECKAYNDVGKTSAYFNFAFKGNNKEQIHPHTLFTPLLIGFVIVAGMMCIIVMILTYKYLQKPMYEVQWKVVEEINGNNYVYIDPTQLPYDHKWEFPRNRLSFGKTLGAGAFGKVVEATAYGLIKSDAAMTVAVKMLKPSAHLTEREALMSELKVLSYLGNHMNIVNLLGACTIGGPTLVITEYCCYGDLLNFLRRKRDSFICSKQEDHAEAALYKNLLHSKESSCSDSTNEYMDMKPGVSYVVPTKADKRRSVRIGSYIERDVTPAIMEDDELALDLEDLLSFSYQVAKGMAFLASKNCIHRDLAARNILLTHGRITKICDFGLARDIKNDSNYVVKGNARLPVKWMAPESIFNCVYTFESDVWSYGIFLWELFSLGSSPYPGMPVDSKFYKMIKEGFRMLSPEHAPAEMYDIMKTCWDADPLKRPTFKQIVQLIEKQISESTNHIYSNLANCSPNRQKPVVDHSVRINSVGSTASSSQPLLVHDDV
Description: Inhibition of cKIT (unknown origin) using FAM-labeled peptide as substrate preincubated for 10 mins followed by substrate addition in presence of ATP by mobility shift assay

[9] = target: T2, Mast/stem cell growth factor receptor Kit; remark: listed apart in the source
Description: Inhibition of TEL-fused cKIT (unknown origin) expressed in mouse BAF3 cells assessed as cell growth inhibition after 72 hrs by cell titer-glo assay

[10] = test system: Mast/stem cell growth factor receptor Kit (Homo sapiens), P10721 [T670I]
Mast/stem cell growth factor receptor Kit (Homo sapiens), P10721 [T670I], sequence (P10721 whole entry T670I): as the sequence (P10721 whole entry) above, with T670I counted along it
Description: Inhibition of TEL-fused cKIT T670I mutant (unknown origin) expressed in mouse BAF3 cells assessed as cell growth inhibition after 72 hrs by cell titer-glo assay

[11] = target: T1, Platelet-derived growth factor receptor alpha
Description: Inhibition of TEL-fused PDGFRalpha (unknown origin) expressed in mouse BAF3 cells assessed as cell growth inhibition after 72 hrs by cell titer-glo assay

[12] = test system: Platelet-derived growth factor receptor alpha (Homo sapiens), P16234 [T674I]
Platelet-derived growth factor receptor alpha (Homo sapiens), P16234 [T674I], sequence (P16234 whole entry T674I): as the sequence (P16234 whole entry) above, with T674I counted along it
Description: Inhibition of TEL-fused PDGFRalpha T674I mutant (unknown origin) expressed in mouse BAF3 cells assessed as cell growth inhibition after 72 hrs by cell titer-glo assay

[13] = Antiproliferative activity against mouse BAF3 cells assessed as cell growth inhibition after 72 hrs by cell titer-glo assay; assay type: cell-based
[14] = Antiproliferative activity against CHL cells assessed as cell growth inhibition after 72 hrs by cell titer-glo assay; assay type: cell-based, Cricetulus griseus; conditions: chinese hamster
[15] = Antiproliferative activity against CHO cells assessed as cell growth inhibition after 72 hrs by cell titer-glo assay; assay type: cell-based, Cricetulus griseus; conditions: chinese hamster
GISTT1 [16] = test: Antiproliferative activity against human GISTT1 cells assessed as cell growth inhibition after 72 hrs by cell titer-glo assay; assay type: functional; conditions: GISTT1, 72 h
GIST882 = test: Antiproliferative activity against human GIST882 cells assessed as cell growth inhibition after 72 hrs by cell titer-glo assay; assay type: functional; conditions: GIST882, 72 h
[17] = Antiproliferative activity against human GIST48B cells assessed as cell growth inhibition after 72 hrs by cell titer-glo assay; assay type: functional
KU812 cell line = test: Antiproliferative activity against human KU812 cells assessed as cell growth inhibition after 72 hrs by cell titer-glo assay; assay type: functional; conditions: KU812, 72 h
MEG-01 = test: Antiproliferative activity against human MEG01 cells assessed as cell growth inhibition after 72 hrs by cell titer-glo assay; assay type: functional; conditions: MEG-01, 72 h
GISTT1 [18] = test: Antitumor activity against human GISTT1 cells xenografted in nu/nu mouse assessed as tumor growth inhibition at 100 mg/kg, ip administered daily for 28 days relative to control; assay type: functional; conditions: 672 h, read-out: TGI
[19] = test system: Mast/stem cell growth factor receptor Kit (Homo sapiens), P10721 [C674S]
Mast/stem cell growth factor receptor Kit (Homo sapiens), P10721 [C674S], sequence (P10721 whole entry C674S): as the sequence (P10721 whole entry) above, with C674S counted along it
Description: Inhibition of TEL-fused cKIT C674S mutant (unknown origin) expressed in mouse BAF3 cells assessed as cell growth inhibition after 72 hrs by cell titer-glo assay

[20] = test system: Mast/stem cell growth factor receptor Kit (Homo sapiens), P10721 [L576P]
Mast/stem cell growth factor receptor Kit (Homo sapiens), P10721 [L576P], sequence (P10721 whole entry L576P): as the sequence (P10721 whole entry) above, with L576P counted along it
Description: Inhibition of TEL-fused cKIT L576P mutant (unknown origin) expressed in mouse BAF3 cells assessed as cell growth inhibition after 72 hrs by cell titer-glo assay

[21] = test system: Mast/stem cell growth factor receptor Kit (Homo sapiens), P10721 [V654A]
Mast/stem cell growth factor receptor Kit (Homo sapiens), P10721 [V654A], sequence (P10721 whole entry V654A): as the sequence (P10721 whole entry) above, with V654A counted along it
Description: Inhibition of TEL-fused cKIT V654A mutant (unknown origin) expressed in mouse BAF3 cells assessed as cell growth inhibition after 72 hrs by cell titer-glo assay

[22] = test system: Mast/stem cell growth factor receptor Kit (Homo sapiens), P10721 [V559D,V654A]
Mast/stem cell growth factor receptor Kit (Homo sapiens), P10721 [V559D,V654A], sequence (P10721 whole entry V559D/V654A): as the sequence (P10721 whole entry) above, with V559D, V654A counted along it

[23] = test system: Mast/stem cell growth factor receptor Kit (Homo sapiens), P10721 [A829P]
Mast/stem cell growth factor receptor Kit (Homo sapiens), P10721 [A829P], sequence (P10721 whole entry A829P): as the sequence (P10721 whole entry) above, with A829P counted along it
Description: Inhibition of TEL-fused cKIT A829P mutant (unknown origin) expressed in mouse BAF3 cells assessed as cell growth inhibition after 72 hrs by cell titer-glo assay

[24] = test system: Mast/stem cell growth factor receptor Kit (Homo sapiens), P10721 [N822K]
Mast/stem cell growth factor receptor Kit (Homo sapiens), P10721 [N822K], sequence (P10721 whole entry N822K): as the sequence (P10721 whole entry) above, with N822K counted along it
Description: Inhibition of TEL-fused cKIT N822K mutant (unknown origin) expressed in mouse BAF3 cells assessed as cell growth inhibition after 72 hrs by cell titer-glo assay

BaF3 = conditions: Mus musculus
Description: Antitumor activity against mouse BAF3 cells harboring TEL-cKIT-T670I mutant allografted in nu/nu mouse assessed as tumor growth inhibition at 100 mg/kg, ip administered daily for 11 days relative to control

- IC50 [1]: 0.04 µM
- IC50 [2]: > 50 µM
- IC50 [3]: 0.197 µM
- IC50 [4]: 1.88 µM
- IC50 [5]: 3.49 µM
- IC50 [6]: 0.376 µM
- IC50 [7]: 1.23 µM
- IC50 [8]: 0.0021 µM
- GI50 [9]: 0.248 µM
- GI50 [10]: 0.318 µM
- GI50 [11]: 0.0104 µM
- GI50 [12]: 1.17 µM
SMILES: Cc1cccc(NC(=O)Nc2ccc(-c3ccnc4[nH]nc(C)c34)cc2)c1

- GI50 [19]: 0.0249 µM
- GI50 [12]: > 10 µM
- GI50 [20]: 0.0451 µM
- GI50 [21]: 0.803 µM
- GI50 [22]: 0.803 µM
- GI50 [23]: 0.148 µM
- GI50 [24]: 1.47 µM
SMILES: Cc1ccc(NC(=O)c2ccc(CN3CCN(C)CC3)cc2)cc1Nc1nccc(-c2cccnc2)n1 [IMATINIB]
- GI50 at 72 h [13]: 4.69 µM
- GI50 at 72 h [14]: > 10 µM
- GI50 at 72 h [15]: > 10 µM
- GI50 (GISTT1 [16]): 0.003 µM
- GI50 (GIST882): 0.02 µM
- GI50 [17]: 6.99 µM
- GI50 (KU812 cell line): 0.11 µM
- GI50 (MEG-01): 0.045 µM
- inhibition in vivo at 100 mg/kg (GISTT1 [18]): 87.3%
- TGI (BaF3): inactive
